Assay results published in PMC7464911, “Isolation of Antidiabetic Withanolides from Withania coagulans Dunal and Their In Vitro and In Silico Validation” (Biology, 2020).
“Also recorded” adds a separate entry of the source. Where two headings read alike, the source gives them in different places. One block for each molecule: values may come before it.

Columns and labels:
[1] = system: Sprague-Dawley normoglycemic rat model; set-up: method as in PMID 24566854; details: cited from earlier work
α-glucosidase [2] = molecular target: T1, α-glucosidase (Saccharomyces cerevisiae, UniProt P53341); details: for α-Glucosidase Inhibition IC50 (µM) ± (SEM): pH 6.8, 37 °C, PNP-G 0.7 mM, mean ± SEM, triplicate
T1 sequence (P53341 whole entry): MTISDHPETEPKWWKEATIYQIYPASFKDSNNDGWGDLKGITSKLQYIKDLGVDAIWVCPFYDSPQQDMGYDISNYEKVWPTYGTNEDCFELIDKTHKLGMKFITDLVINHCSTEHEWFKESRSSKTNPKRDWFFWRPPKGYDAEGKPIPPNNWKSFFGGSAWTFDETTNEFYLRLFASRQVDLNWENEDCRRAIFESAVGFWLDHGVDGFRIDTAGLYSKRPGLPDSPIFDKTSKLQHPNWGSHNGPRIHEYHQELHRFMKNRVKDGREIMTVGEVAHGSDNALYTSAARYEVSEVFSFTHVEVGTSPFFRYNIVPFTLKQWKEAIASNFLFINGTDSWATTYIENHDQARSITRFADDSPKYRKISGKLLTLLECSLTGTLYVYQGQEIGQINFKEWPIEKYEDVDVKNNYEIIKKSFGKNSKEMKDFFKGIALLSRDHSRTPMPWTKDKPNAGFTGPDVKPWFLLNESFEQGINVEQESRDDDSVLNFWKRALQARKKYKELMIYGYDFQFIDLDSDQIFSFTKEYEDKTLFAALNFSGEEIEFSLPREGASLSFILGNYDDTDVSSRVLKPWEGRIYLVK
Procedure: (§1) α-Glucosidase inhibitory potential of test compounds was assayed by using 0.1 M phosphate buffer (pH 6.8) at 37 °C. The enzyme (0.2 U/mL) in phosphate buffer was incubated with selected concentrations of test compounds at 37 °C for 15 min. The substrate, p-nitrophenyl-α-D-glucopyranoside (PNP-G) (0.7 mM) was added in each well of 96-well plate and change in absorbance was monitored at 400 nm for 30 min. […] The increase in absorption due to the hydrolysis of PNP-G by α-glucosidase was recorded continuously with the spectrophotometer (Spectra Max, MD, USA.) and percent inhibition was calculated by using the following formula: % Inhibition = 100−⦋OD of test sample/OD of the control×100⦌
(§2) The experiments were performed by using 96-well microplate reader (SpectraMax M2, Molecular Devices, CA, USA) and the results were analyzed by SoftMaxPro 4.8 and MS-Excel. The experiments were repeated in triplicate, and results were presented as means ± SEM. IC50 values were determined by using EZ-FIT, Enzyme kinetics software by Perrella Scientific, Inc., Amherst, MA, USA.

[3] = system: AGE formation (bovine serum albumin, methylglyoxal); assay: In vitro antiglycation assay (BSA-methylglyoxal, AGE fluorescence); assay type: biochemical
Procedure: Methylglyoxal (14 mM), sodium azide (30 mM) in 0.1 M phosphate buffer, bovine serum albumin (10 mg/mL), and various concentrations of the compounds (prepared in 10% DMSO) were incubated under sterile conditions at 37 °C for 9 days. […] Standard rutin was used as a positive control and percent inhibition of AGE formation in the test sample versus control was calculated by using the following relation: % Inhibition = ⦋1−Fluorescence of test sample/Fluorescence of the control⦌×100

α-glucosidase [4] = molecular target: T1, α-glucosidase; assay: biochemical
Procedure: as §1, §2

Molecule: 17β-hydroxywithanolide K
- anti-inflammatory activity [1]: potent
- antihyperglycemic activity [1]: potent

Molecule: CC1=C(C)C(=O)O[C@@H]([C@](C)(O)[C@]2(O)CC[C@@]3(O)[C@@H]4C[C@H]5O[C@]56[C@@H](O)C=CC(=O)[C@]6(C)[C@H]4CC[C@]23C)C1 [4β-hydroxywithanolide E]
- anti-inflammatory activity [1]: potent
- antihyperglycemic activity [1]: potent

Molecule: CC1=C(COC2OC(CO)C(O)C(O)C2O)C(=O)OC(C2(C)OC34CCC2C3(C)CCC2C4CC=C3CC(O)CC(=O)C32C)C1 (stereo not drawn) [Compound 1, 3β-Hydroxy-14R,20R-epoxy-1-oxowitha-5,24-dienolide-27-O-β-D glucopyranoside]
- α-glucosidase inhibitory activity (in words) (α-glucosidase [2]): did not possess α-glucosidase inhibitory activity; also recorded: inactive
- α-Glucosidase Inhibition IC50 (µM) ± (SEM) (α-glucosidase [2]): Inactive
- Antiglycation IC50 (µM) ± (SEM) [3]: Inactive

Molecule: CC1=C(C)C(=O)O[C@@H]([C@@](C)(O)[C@@]2(O)CC[C@@]3(O)[C@@H]4CC=C5CC=CC(=O)[C@]5(C)[C@H]4CC[C@]23C)C1 [Compound 2, withanolid J]
- IC50 (α-glucosidase [4]): 683 ± 0.94 µM
- Antiglycation IC50 (µM) ± (SEM) ([3]; 37 °C, 9 days, mean ± SEM): Inactive

Molecule: CC1=C(C)C(=O)O[C@@H]([C@@]2(C)O[C@@]34CC[C@@H]2[C@@]3(C)CC[C@H]2[C@H]4CC=C3C=CCC(=O)[C@@]32C)C1 [Compound 3, coagulin E]
- α-glucosidase inhibitory activity (in words) (α-glucosidase [2]): did not possess α-glucosidase inhibitory activity
- α-Glucosidase Inhibition IC50 (µM) ± (SEM) (α-glucosidase [2]): Inactive
- Antiglycation IC50 (µM) ± (SEM) ([3]; 37 °C, 9 days, mean ± SEM): Inactive

Molecule: CC1=C(C)C(=O)O[C@@H]([C@@](C)(O)[C@@]2(O)CC[C@@]3(O)[C@@H]4CCC5=CC=CC(=O)[C@]5(C)[C@H]4CC[C@]23C)C1 [Compound 4, withaperuvin C]
- IC50 (α-glucosidase [4]): 407 ± 4.5 µM
- Antiglycation IC50 (µM) ± (SEM) ([3]; 37 °C, 9 days, mean ± SEM): Inactive

Molecule: CC1=C(CO)C(=O)O[C@@H]([C@@](C)(O)[C@H]2CC[C@@]3(O)[C@@H]4CC=C5C=CCC(=O)[C@]5(C)[C@H]4CC[C@]23C)C1 [Compound 5, 27-hydroxywithanolide I]
- IC50 (α-glucosidase [4]): 66.7 ± 3.6 µM
- Antiglycation IC50 (µM) ± (SEM) ([3]; 37 °C, 9 days, mean ± SEM): Inactive

Molecule: CC1=C(CO)C(=O)O[C@@H]([C@@](C)(O)[C@@]2(O)CC[C@@]3(O)[C@@H]4CC=C5C=CCC(=O)[C@]5(C)[C@H]4CC[C@]23C)C1 [Compound 6, ajugin E]
- α-glucosidase inhibitory activity (in words) (α-glucosidase [2]): did not possess α-glucosidase inhibitory activity
- α-Glucosidase Inhibition IC50 (µM) ± (SEM) (α-glucosidase [2]): Inactive
- Antiglycation IC50 (µM) ± (SEM) [3]: Inactive

- IC50 ([3]; 37 °C, 9 days, mean ± SEM): 288.9 ± 1.84 µM
Molecule: C[C@@H]1O[C@@H](OC[C@H]2O[C@@H](Oc3c(-c4ccc(O)c(O)c4)oc4cc(O)cc(O)c4c3=O)[C@H](O)[C@@H](O)[C@@H]2O)[C@H](O)[C@H](O)[C@H]1O [Rutin, rutin, reference compound]
